Data taken from patent publication US11524968B2, “Heterocyclic compound as a protein kinase inhibitor” (HK inno.N Corporation, priority 2017, dated 2022).

Biological target: JAK1 (Homo sapiens (Human), UniProt P23458)
Assay: Analysis of JAK1 activity inhibition ability (ADP-Glo Kinase Assay)
Assay type: biochemical
Conditions: JAK1 enzyme, ADP-Glo luminescence, ATP 250 uM, IRS-itide substrate, 30° C. 40 minutes; read-out: IC50
Outline: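 JAK1 enzyme, IRS-itide substrate (40 ng/mL) and 250 uM ATP, both as prepared in kinase buffer (Tris-HCl pH 7.5, MgCl2, BSA, DTT), reacted with compound 40 min at 30 °C. ADP formed was detected by ADP-Glo luminescence; IC50 is the concentration giving 50% inhibition versus control.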

Chain of JAK1 (P23458 whole entry): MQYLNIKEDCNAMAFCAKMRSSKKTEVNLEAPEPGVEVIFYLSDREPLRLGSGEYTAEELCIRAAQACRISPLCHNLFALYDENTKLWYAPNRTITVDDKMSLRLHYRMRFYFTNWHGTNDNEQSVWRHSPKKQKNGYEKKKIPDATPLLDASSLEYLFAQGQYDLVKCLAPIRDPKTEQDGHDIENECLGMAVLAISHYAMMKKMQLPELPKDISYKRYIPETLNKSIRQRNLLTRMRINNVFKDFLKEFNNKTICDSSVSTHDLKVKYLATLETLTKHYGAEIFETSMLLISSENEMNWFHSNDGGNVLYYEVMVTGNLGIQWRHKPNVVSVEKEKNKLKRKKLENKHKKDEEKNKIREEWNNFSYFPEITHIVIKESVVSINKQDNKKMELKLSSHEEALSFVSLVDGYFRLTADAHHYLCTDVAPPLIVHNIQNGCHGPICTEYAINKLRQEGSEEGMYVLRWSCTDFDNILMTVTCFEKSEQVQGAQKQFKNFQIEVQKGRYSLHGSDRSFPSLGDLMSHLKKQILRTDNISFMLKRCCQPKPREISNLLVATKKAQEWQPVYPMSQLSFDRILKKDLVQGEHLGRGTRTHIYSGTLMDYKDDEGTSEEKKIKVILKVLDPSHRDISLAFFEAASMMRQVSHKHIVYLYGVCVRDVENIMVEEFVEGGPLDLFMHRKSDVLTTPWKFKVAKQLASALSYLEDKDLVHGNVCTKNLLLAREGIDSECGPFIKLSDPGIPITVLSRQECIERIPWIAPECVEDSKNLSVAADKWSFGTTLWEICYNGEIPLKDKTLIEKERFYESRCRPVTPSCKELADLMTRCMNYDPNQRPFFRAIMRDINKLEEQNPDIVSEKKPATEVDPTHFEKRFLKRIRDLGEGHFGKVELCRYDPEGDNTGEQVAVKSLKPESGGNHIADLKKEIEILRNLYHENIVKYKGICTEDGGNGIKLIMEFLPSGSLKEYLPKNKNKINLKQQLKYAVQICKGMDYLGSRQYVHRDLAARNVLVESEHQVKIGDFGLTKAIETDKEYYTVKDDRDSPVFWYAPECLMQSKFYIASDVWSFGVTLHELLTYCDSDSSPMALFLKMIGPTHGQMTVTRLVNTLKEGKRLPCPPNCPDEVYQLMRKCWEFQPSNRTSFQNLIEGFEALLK

Row | SMILES | IC50 [nM]
1 | CC1CN(C(=O)c2cccc(CCN3C(=O)COCC3=O)c2)CC=C1c1cc(NC(=O)C2CC2)nc2[nH]ccc12 (stereo not drawn) [Example 315, N-(4-(1-(3-(2-(3,5-dioxomorpholino)ethyl)benzoyl)-3-methyl-1,2,3,6-tetrahydropyridin-4-yl)-1H-pyrrolo[2,3-b]pyridin-6-yl)cyclopropanecarboxamide] | > 200
2 | CC1CN(C(=O)c2cccc(Nc3ccccc3)c2)CC=C1c1cc(NC(=O)C2CC2)nc2[nH]ccc12 (stereo not drawn) [Example 316, N-(4-(3-methyl-1-(3-(phenylamino)benzoyl)-1,2,3,6-tetrahydropyridin-4-yl)-1H-pyrrolo[2,3-b]pyridin-6-yl)cyclopropanecarboxamide] | > 200
3 | CC1CN(C(=O)c2ccc(-c3ccc(F)cc3F)[nH]c2=O)CC=C1c1cc(NC(=O)C2CC2)nc2[nH]ccc12 (stereo not drawn) [Example 317, N-(4-(1-(6-(2,4-difluorophenyl)-2-oxo-1,2-dihydropyridine-3-carbonyl)-3-methyl-1,2,3,6-tetrahydropyridin-4-yl)-1H-pyrrolo[2,3-b]pyridin-6-yl)cyclopropanecarboxamide] | > 200
4 | COC(=O)C1(C(=O)N2CC=C(c3cc(NC(=O)C4CC4)nc4[nH]ccc34)C(C)C2)CCC1 (stereo not drawn) [Example 318, methyl 1-(4-(6-(cyclopropanecarboxamido)-1H-pyrrolo[2,3-b]pyridin-4-yl)-3-methyl-1,2,3,6-tetrahydropyridine-1-carbonyl)cyclobutane-1-carboxylate] | > 200
5 | COC(=O)C1(C(=O)N2CC=C(c3cc(NC(=O)C4CC4)nc4[nH]ccc34)C(C)C2)CC1 (stereo not drawn) [Example 319, methyl 1-(4-(6-(cyclopropanecarboxamido)-1H-pyrrolo[2,3-b]pyridin-4-yl)-3-methyl-1,2,3,6-tetrahydropyridine-1-carbonyl)cyclopropane-1-carboxylate] | > 200
6 | COC(=O)C(C)C(=O)N1CC=C(c2cc(NC(=O)C3CC3)nc3[nH]ccc23)C(C)C1 (stereo not drawn) [Example 320, methyl 3-(4-(6-(cyclopropanecarboxamido)-1H-pyrrolo[2,3-b]pyridin-4-yl)-3-methyl-3,6-dihydropyridin-1 (2H)-yl)-2-methyl-3-oxopropanoate] | > 200
7 | CC1CN(C(=O)c2ccc(C(C)(C)C)[nH]c2=O)CC=C1c1cc(NC(=O)C2CC2)nc2[nH]ccc12 (stereo not drawn) [Example 321, N-(4-(1-(6-(tert-butyl)-2-oxo-1,2-dihydropyridine-3-carbonyl)-3-methyl-1,2,3,6-tetrahydropyridin-4-yl)-1H-pyrrolo[2,3-b]pyridin-6-yl)cyclopropanecarboxamide] | > 200
8 | CC1CN(C(=O)c2ccc(-c3ccc(F)cc3)[nH]c2=O)CC=C1c1cc(NC(=O)C2CC2)nc2[nH]ccc12 (stereo not drawn) [Example 322, N-(4-(1-(6-(4-fluorophenyl)-2-oxo-1,2-dihydropyridine-3-carbonyl)-3-methyl-1,2,3,6-tetrahydropyridin-4-yl)-1H-pyrrolo[2,3-b]pyridin-6-yl)cyclopropanecarboxamide] | > 200
9 | CC1CN(C(=O)c2ccc(NCCN3CCOCC3)c(F)c2)CC=C1c1cc(NC(=O)C2CC2)nc2[nH]ccc12 (stereo not drawn) [Example 323, N-(4-(1-(3-fluoro-4-((2-morpholinoethyl)amino)benzoyl)-3-methyl-1,2,3,6-tetrahydropyridin-4-yl)-1H-pyrrolo[2,3-b]pyridin-6-yl)cyclopropanecarboxamide] | > 200
10 | CC1CN(C(=O)c2ccc3cc[nH]c3c2)CC=C1c1cc(NC(=O)C2CC2)nc2[nH]ccc12 (stereo not drawn) [Example 327, N-(4-(1-(1H-indole-6-carbonyl)-3-methyl-1,2,3,6-tetrahydropyridin-4-yl)-1H-pyrrolo[2,3-b]pyridin-6-yl)cyclopropanecarboxamide] | 20 to 200
11 | CC1CN(C(=O)c2ccnc3[nH]ccc23)CC=C1c1cc(NC(=O)C2CC2)nc2[nH]ccc12 (stereo not drawn) [Example 328, N-(4-(3-methyl-1-(1H-pyrrolo[2,3-b]pyridine-4-carbonyl)-1,2,3,6-tetrahydropyridin-4-yl)-1H-pyrrolo[2,3-b]pyridin-6-yl)cyclopropanecarboxamide] | 20 to 200

Continued, values first:

Row | IC50 [nM] | SMILES
12 | 20 to 200 | Cc1ncsc1C(=O)N1CC=C(c2cc(NC(=O)C3CC3)nc3[nH]ccc23)C(C)C1 (stereo not drawn) [Example 308, N-(4-(3-methyl-1-(4-methylthiazole-5-carbonyl)-1,2,3,6-tetrahydropyridin-4-yl)-1H-pyrrolo[2,3-b]pyridin-6-yl)cyclopropanecarboxamide]
13 | < 20 | CC1CN(C(=O)c2ccnc(F)c2)CC=C1c1cc(NC(=O)C2CC2)nc2[nH]ccc12 (stereo not drawn) [Example 309, N-(4-(1-(2-fluoroisonicotinoyl)-3-methyl-1,2,3,6-tetrahydropyridin-4-yl)-1H-pyrrolo[2,3-b]pyridin-6-yl)cyclopropanecarboxamide]
14 | < 20 | CC1CN(C(=O)c2ccnc(Cl)c2)CC=C1c1cc(NC(=O)C2CC2)nc2[nH]ccc12 (stereo not drawn) [Example 310, N-(4-(1-(2-chloroisonicotinoyl)-3-methyl-1,2,3,6-tetrahydropyridin-4-yl)-1H-pyrrolo[2,3-b]pyridin-6-yl)cyclopropanecarboxamide]
15 | 20 to 200 | CC1CN(C(=O)c2ccc(F)c(F)c2)CC=C1c1cc(NC(=O)C2CC2)nc2[nH]ccc12 (stereo not drawn) [Example 311, N-(4-(1-(3,4-difluorobenzoyl)-3-methyl-1,2,3,6-tetrahydropyridin-4-yl)-1H-pyrrolo[2,3-b]pyridin-6-yl)cyclopropanecarboxamide]
16 | 20 to 200 | COc1ccc(C(=O)N2CC=C(c3cc(NC(=O)C4CC4)nc4[nH]ccc34)C(C)C2)cc1F (stereo not drawn) [Example 312, N-(4-(1-(3-fluoro-4-methoxybenzoyl)-3-methyl-1,2,3,6-tetrahydropyridin-4-yl)-1H-pyrrolo[2,3-b]pyridin-6-yl)cyclopropanecarboxamide]
17 | 20 to 200 | CC1CN(C(=O)c2ccc[nH]2)CC=C1c1cc(NC(=O)C2CC2)nc2[nH]ccc12 (stereo not drawn) [Example 313, N-(4-(3-methyl-1-(1H-pyrrole-2-carbonyl)-1,2,3,6-tetrahydropyridin-4-yl)-1H-pyrrolo[2,3-b]pyridin-6-yl)cyclopropanecarboxamide]
18 | 20 to 200 | CC1CN(C(=O)c2ccncc2F)CC=C1c1cc(NC(=O)C2CC2)nc2[nH]ccc12 (stereo not drawn) [Example 314, N-(4-(1-(3-fluoroisonicotinoyl)-3-methyl-1,2,3,6-tetrahydropyridin-4-yl)-1H-pyrrolo[2,3-b]pyridin-6-yl)cyclopropanecarboxamide]
19 | 20 to 200 | CC1CN(C(=O)c2cncc(Br)c2)CC=C1c1cc(NC(=O)C2CC2)nc2[nH]ccc12 (stereo not drawn) [Example 324, N-(4-(1-(5-bromonicotinoyl)-3-methyl-1,2,3,6-tetrahydropyridin-4-yl)-1H-pyrrolo[2,3-b]pyridin-6-yl)cyclopropanecarboxamide]
20 | 20 to 200 | CC1CN(C(=O)c2ccc3c(c2)OCCO3)CC=C1c1cc(NC(=O)C2CC2)nc2[nH]ccc12 (stereo not drawn) [Example 325, N-(4-(1-(2,3-dihydrobenzo[b][1,4]dioxine-6-carbonyl)-3-methyl-1,2,3,6-tetrahydropyridin-4-yl)-1H-pyrrolo[2,3-b]pyridin-6-yl)cyclopropanecarboxamide]
21 | 20 to 200 | CC1CN(C(=O)c2ccc3c(c2)OCO3)CC=C1c1cc(NC(=O)C2CC2)nc2[nH]ccc12 (stereo not drawn) [Example 326, N-(4-(1-(benzo[d][1,3]dioxole-5-carbonyl)-3-methyl-1,2,3,6-tetrahydropyridin-4-yl)-1H-pyrrolo[2,3-b]pyridin-6-yl)cyclopropanecarboxamide]
